Assay: OSI test of soybean oil mixed with additive
Conditions: 1.0% additive, 130° C.
Excerpt: A presently preferred method of determining oxidative stability of lipids and oils employs the Oxidative Stability Index (OSI), which determines the oxidative stability of an oil by passing air through a sample under stringent temperature control. (Firestone, Oxidative Stability Index (OSI): Official Methods of Recommended Practices of the American Oil Chemists' Society (AOCS), 4th Ed. American Oil Chemists Society, Champaign, Ill., AOCS Official Method Cd 12b-92, 1993.) In this method, a stream of air is passed through the oil sample, which aids in the rapid degradation of the triglyceride into volatile organic acids. The air stream flushes the volatile acids from the oil into a conductivity cell containing water where the acids are solubilized. These acids, once dissolved in the water solution, disassociate into ions, thus changing the conductivity of the water. Therefore, a continuous measure of the conductivity of the cell by computer will indicate when a rapid rise in the conductivity occurs that corresponds to the induction point, oxidative failure of the sample. […]
Unless otherwise stated, Oxidative Stability Index (OSI) values were determined on 5.00 ±0.05 g lipid or oil samples in triplicate according to AOCS Official Method Cd 12b-92 (AOCS, 1993) at 90° C., 110° C. and/or 130° C. on an oxidative stability instrument manufactured by Omnion (Rockland, Mass.). […]

SMILES: COc1cccc(CNC(=S)NCc2cccc(OC)c2)c1 [1,3-di(3-methoxybenzyl) thiourea]
- OSI Time: 6.4 h
- improvement of OSI time compared to soybean oil alone: 831%

Source: patent publication US7169815B2, “3-methoxybenzyl thiourea derivatives and improved lipid compositions containing same” (The United States of America as represented by the …, priority 2000, dated 2007)
